Results as given in publication PMC9499525, “Tissue-restricted inhibition of mTOR using chemical genetics” (Proceedings of the National Academy of Sciences of the …, 2022).

What was measured:
[1] = PAMPA membrane permeability; assay type: in vitro ADME; settings: 100 µM in PBS, LC-MS
Method: PAMPA and Caco-2 membrane permeability assays
PAMPA was performed by Quintara Discovery as described previously (2). Compounds were
analyzed at 100 µM in PBS and measured using liquid chromatography-mass spectrometry (LC-

[2] = Bidirectional Caco-2 cell permeability; assay type: in vitro ADME; settings: human, LC-MS
Method: PAMPA and Caco-2 membrane permeability assays […]
MS) after 5 hours. Bidirectional Caco-2 cell permeability assay was performed by Quintara
Discovery. Compounds were analyzed at 10 µM and measured by LC-MS after 1 hour.

[3] = target: T1, FKBP12 V55G-HA / GST-mTOR FRB domain ternary complex (Homo sapiens, UniProt P42345+P62942, V56G); assay: TR-FRET ternary complex formation, FKBP12 V55G with mTOR FRB; assay type: binding
T1 construct: recombinant HA-tagged wild-type or V55G mutant FKBP12 with GST-tagged mTOR FRB domain; 8xHis (cleaved yes); made in house; host or cells: E. coli BL21 (DE3) for FKBP12
Method: (§1) TR-FRET assay was performed using recommended conditions from Cisbio with slight modifications. FKBP12-HA, FKBP12 V55G-HA, and GST-mTORFRB recombinant proteins were each diluted to 5 nM in assay buffer (20 mM HEPES pH 7.5, 150 mM NaCl, 0.05% Tween-20, 0.1% bovine serum albumin [BSA], 0.5 mM dithiothreitol [DTT]). Anti-GST-Tb (Cisbio) and Anti-HA-XL665 (Cisbio) were diluted to 0.625 µg/mL and 5 µg/mL, respectively, in assay buffer. Rapa* compounds and FK506 were diluted to 50 µM and rapamycin to 5 µM in assay buffer containing 5% DMSO, and threefold serial dilution series were made from these solutions. We mixed 4 µL diluted FKBP12-HA protein, 4 µL diluted GST-mTORFRB, and 4 µL of compound or DMSO control in a well of a black low-volume 384-well plate (Corning 4514), and the mixture was incubated at room temperature for 1 h. We then added 4 µL of Anti-GST-Tb, and 4 µL Anti-HA-XL665, and the mixture was incubated at room temperature for an additional 1 h. Time-resolved fluorescence was read on a Tecan Spark 20M plate reader with the following parameters: Lag time: 60 µs; Integration time: 500 µs; Read A: Excitation filter 320 ([25]) nm, Emission filter 610 ([25]) nm, Gain 130; Read B: Excitation filter 320 ([25]) nm, Emission filter 665 ([8]) nm, Gain 165. Three replicates were performed for each assay condition. […]
Human FKBP12 coding sequence was cloned a pET-47b bacterial expression vector using Gibson assembly and a C-terminal HA-tag was added by QuickChange PCR. FKBP12 proteins were expressed as 8xHis fusions in E. coli BL21 (DE3) cells. […] Samples were then purified by size exclusion chromatography, concentrated to 10-20 mg/mL, and snap frozen in liquid nitrogen. pGEX-2T FRB was a gift from Jie Chen (Addgene plasmid #26607). mTOR FRB was expressed as a GST-fusion and purified as previously described (1). […]
PAMPA was performed by Quintara Discovery as described previously (2). Compounds were analyzed at 100 µM in PBS and measured using liquid chromatography-mass spectrometry (LC-MS) after 5 hours. […] Compounds were analyzed at 10 µM and measured by LC-MS after 1 hour.

[4] = test system: S. cerevisiae BY4741 fpr1-KO expressing human FKBP12 variants; assay: Yeast disk diffusion growth inhibition assay; assay type: cell-based, Saccharomyces cerevisiae; settings: 100 µM on disk, 3 d
Excerpt: BY4741 fpr1::URA3 yeast were generated by homologous recombination, selected on Ura- synthetic complete medium and subsequently grown in yeast extract-peptone-dextrose (YPD) medium ([46]). Human FKBP12 coding sequence was cloned via Gibson assembly into a pCH043 yeast expression vector, which had been previously modified with an HIS3 selection open reading frame (ORF). The C-terminal HA-tag and F46/V55 mutations were introduced by site-directed mutagenesis PCR. Plasmids were transformed into the BY4741 fpr1::URA3 strain and selected on His- synthetic complete medium. Isolated strains were verified by plasmid sequencing. To prepare yeast protein lysates, 2 optical density (OD) equivalents from an overnight culture was resuspended in 200 µl 0.1 M NaOH and incubated at room temperature for 15 min. Cells were pelleted, resuspended in 50 µL 2x SDS loading dye, and heated at 95 °C for 5 min. Following centrifugation at 20,000 × g for 10 min, supernatant was saved for analysis.
Yeast strains containing FKBP12-expression vectors were shaken overnight at 30 °C in 3 mL His- synthetic complete media. 0.1 OD of culture was spun down, resuspended in 1 mL sterile water, and 100 µL was spread on His-synthetic media containing galactose/raffinose to induce protein expression. Plates were incubated at 30 °C for 1 h to dry. Filter paper circles were prepared with a hole punch, placed on the plate, and 5 µL of DMSO, 100 µM rapamycin, or 100 µM Rapa* compound was pipetted onto the filter paper. Plates were incubated at 30 °C for 3 d before zones of growth inhibition were measured.

[5] = test system: Flp-In 293 cells with and without FKBP12 V55G-HA; assay: Cell growth by CellTiter-Glo in Flp-In 293 cells; assay type: cell-based, human; settings: 72 h treatment
Method: All cell lines were maintained in DMEM (Gibco) supplemented with 10% heat-inactivated FBS (Axenia Biologix) at 37 °C in 5% CO2. Flp-In T-REx 293 cells were obtained from Thermo Fisher supplemented with 15 µg/mL blasticin and 100 µg/mL Zeocin. […] When indicated, cells were treated with drugs at 60–80% confluency at a final DMSO concentration of 0.1%.
Cells were seeded into 96-well tissue-culture treated plates (Greiner) and were allowed to incubate for 24 h. Cells were treated with indicated compounds and incubated for 72 h (100 µL final well volume, 0.1% DMSO). Cell viability was assessed by CellTiter-Glo (Promega). Assay reagent was diluted 1:4 in PBS containing 1% Triton X-100, and 100 µL was added to each well and mixed on a plate shaker for 20 min. Luminescence was measured on a Tecan Spark 20M.

[6] = test system: Drosophila larvae (w1118 control and FKBP12 V55G transgenic); assay: Drosophila larval development (pupae 9 d after egg laying); assay type: in vivo
Method: All Drosophila stocks and crosses were maintained on standard cornmeal-molasses food at 25 °C using a 12-h light/dark cycle. To generate UAS-FKBP12 V55G-HA transgenic lines, human FKBP12 V55G-HA ORF was cloned into a pUAST-attB vector between EcoR-I and Xho-I restriction sites. This construct was then integrated into an attB site using phiC31 integrase with the assistance of Rainbow Transgenic Flies, Inc. The driver stocks da-GAL4 (ubiquitous), elav-GAL4 and nSyb-GAL4 (neuronal-specific), Mef2-GAL4 and mhc-GAL4 (musculature), and 2–286-GAL4 and phm-GAL4 (ring-gland-specific) were obtained from Bloomington Drosophila Stock Center. The crossing schemes used in this study are depicted in SI Appendix, Fig. S11. For rapamycin or Rapa*3Z related experiments, fly food was prepared freshly 24 h before each experiment.
Fly food containing ethanol vehicle was used as control. […] Three biological replicates were used for each experiment. Data were analyzed using Prism 9.0 (GraphPad).

[7] = target: T2, FKBP12-HA (wild-type) / GST-mTOR FRB domain ternary complex (Homo sapiens, UniProt P42345+P62942); assay: TR-FRET ternary complex formation, wild-type FKBP12 with mTOR FRB; assay type: binding
T2 construct: recombinant HA-tagged wild-type or V55G mutant FKBP12 with GST-tagged mTOR FRB domain; 8xHis (cleaved yes); made in house; host or cells: E. coli BL21 (DE3) for FKBP12
Method: as §1, with “We mixed 4 µL diluted FKBP12-HA protein, 4 µL diluted GST-mTORFRB, and 4 µL of compound or DMSO control in a well of a black low-volume 384-well plate (Corning 4514), and the mixture was incubated at room temperature for 1 h. We then added 4 µL of Anti-GST-Tb, and 4 µL Anti-HA-XL665, and the mixture was incubated at room temperature for an additional 1 h.” left out, “165.” for “165. Three replicates were performed for each assay condition.”
Human FKBP12 coding sequence was cloned a pET-47b bacterial expression vector using Gibson assembly and a C-terminal HA-tag was added by QuickChange PCR. FKBP12 proteins were expressed as 8xHis fusions in E. coli BL21 (DE3) cells. […]
PAMPA was performed by Quintara Discovery as described previously (2). Compounds were analyzed at 100 µM in PBS and measured using liquid chromatography-mass spectrometry (LC-MS) after 5 hours. […]

T1 sequence (P62942 whole entry V56G, the tested form may be a part): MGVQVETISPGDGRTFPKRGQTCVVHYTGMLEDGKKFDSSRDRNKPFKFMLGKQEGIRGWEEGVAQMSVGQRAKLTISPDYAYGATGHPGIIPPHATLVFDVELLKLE
T1 sequence (P42345 2012-2144 limits assumed): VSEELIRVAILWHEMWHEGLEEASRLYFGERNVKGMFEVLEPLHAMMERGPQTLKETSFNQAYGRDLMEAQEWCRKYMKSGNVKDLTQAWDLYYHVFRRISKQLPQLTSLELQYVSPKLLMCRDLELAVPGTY
T2 sequence (P62942 whole entry, the tested form may be a part): as the sequence (P62942 whole entry V56G, the tested form may be a part) above, with G56V counted along it
T2 sequence (P42345 2012-2144 limits assumed): as the sequence (P42345 2012-2144 limits assumed) above

Structure (SMILES) | Papp at 5 h, 100 µM [1] [×10⁻⁶ cm/s] | Papp A→B at 1 h, 10 µM [2] [×10⁻⁶ cm/s] | Papp B→A at 1 h, 10 µM [2] [×10⁻⁶ cm/s] | Selectivity of ternary complex induction, wild-type vs V55G ([3]; FKBP12 vs FKBP12 V55G) | Growth inhibition of yeast, fpr1-KO with empty vector [4] | Growth inhibition of yeast expressing wild-type human FKBP12 ([4]; fpr1-KO + human FKBP12) | Growth inhibition of yeast expressing FKBP12 F46/V55 mutants ([4]; mutant strains) | Cell growth inhibition, 293 cells with and without FKBP12 V55G [5] | Effect on larval development in wild-type animals ([6]; wild-type (w1118) larvae, compound in food) | Dose required for complete inhibition of larval development ([6]; wild-type flies (w1118), in food, 9 d after egg laying) [µM] | Ternary complex induction (in words), FKBP12 V55G [3] | Ternary complex induction (in words), wild-type FKBP12 [7]
CO[C@H]1C[C@@H]2CC[C@@H](C)[C@@](O)(O2)C(=O)C(=O)N2CCCC[C@H]2C(=O)O[C@H]([C@H](C)C[C@@H]2CC[C@@H](O)[C@H](OC)C2)C/C(=N/O)[C@H](C)/C=C(\C)[C@@H](O)[C@@H](OC)C(=O)[C@H](C)C[C@H](C)/C=C/C=C/C=C/1C [Rapa*-1Z] | 0.002 | < 0.3 | 1.6 | – | – | – | – | – | – | – | – | –
CO[C@H]1C[C@@H]2CC[C@@H](C)[C@@](O)(O2)C(=O)C(=O)N2CCCC[C@H]2C(=O)O[C@H]([C@H](C)C[C@@H]2CC[C@@H](O)[C@H](OC)C2)CC(=O)[C@H](C)/C=C(\C)[C@@H](O)[C@@H](OC)C(=O)[C@H](C)C[C@H](C)/C=C/C=C/C=C/1C [rapamycin, reference compound] | 0.209 | 0.8 | 2.3 | slightly selective toward the wild-type complex | conferred resistance to rapamycin | rescued full sensitivity | retained activity, albeit reduced, in the mutant strains | inhibited mutant and wild-type cells equally | profound inhibition of larval development | 1 | – | –
C=CC[C@@H]1/C=C(\C)C[C@H](C)C[C@H](OC)[C@H]2O[C@@](O)(C(=O)C(=O)N3CCCC[C@H]3C(=O)O[C@H](/C(C)=C/[C@@H]3CC[C@@H](O)[C@H](OC)C3)[C@H](C)[C@@H](O)CC1=O)[C@H](C)C[C@@H]2OC [FK506, reference compound] | – | – | – | – | – | – | – | – | – | – | failed to induce either ternary complex | failed to induce either ternary complex
C=CCO/N=C1/C[C@@H]([C@H](C)C[C@@H]2CC[C@@H](O)[C@H](OC)C2)OC(=O)[C@@H]2CCCCN2C(=O)C(=O)[C@]2(O)O[C@@H](CC[C@H]2C)C[C@H](OC)/C(C)=C/C=C/C=C/[C@@H](C)C[C@@H](C)C(=O)[C@H](OC)[C@H](O)/C(C)=C/[C@H]1C [Rapa*-9Z] | 0.014 | < 0.1 | 0.4 | – | – | – | – | – | – | – | – | –
